How the values were obtained:
[1] = biological target: T1, Acetylcholinesterase (AChE) (Mus musculus, UniProt P21836); experiment: Acetylcholinesterase (AChE) assay in brain (in vitro), Ellman method; assay type: biochemical, Swiss albino mice; details: for inhibition at 10 µM / inhibition at 100 µM: read-out: % Inhibition of AChE enzyme; for AChE inhibitory activity compared to rivastigmine: comparison with rivastigmine
T1 construct: A 10% (w/v) homogenate of brain was prepared; from tissue; host or cells: whole brain of adult Swiss albino mice; supernatant (100,000 g) of the 1% Triton X-100 treated homogenate
T1 sequence (P21836 32-614): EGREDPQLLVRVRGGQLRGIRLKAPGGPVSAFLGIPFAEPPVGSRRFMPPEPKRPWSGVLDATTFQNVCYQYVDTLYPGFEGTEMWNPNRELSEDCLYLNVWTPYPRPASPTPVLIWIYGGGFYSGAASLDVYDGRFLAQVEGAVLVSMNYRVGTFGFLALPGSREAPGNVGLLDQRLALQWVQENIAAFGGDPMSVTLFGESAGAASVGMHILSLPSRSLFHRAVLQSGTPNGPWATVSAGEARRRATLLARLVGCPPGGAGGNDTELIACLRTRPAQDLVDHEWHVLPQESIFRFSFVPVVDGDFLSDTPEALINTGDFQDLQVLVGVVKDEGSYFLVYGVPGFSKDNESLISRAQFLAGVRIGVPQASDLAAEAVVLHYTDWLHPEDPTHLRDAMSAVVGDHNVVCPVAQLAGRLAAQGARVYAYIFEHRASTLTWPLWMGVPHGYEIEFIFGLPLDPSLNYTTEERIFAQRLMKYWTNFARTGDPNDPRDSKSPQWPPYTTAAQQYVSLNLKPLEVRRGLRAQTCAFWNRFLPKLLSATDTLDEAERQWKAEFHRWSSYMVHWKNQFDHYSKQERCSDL
Experimental: Acetylcholinesterase (AChE) Assay in Brain (In Vitro)
The mice were perfused under mild ether anesthesia through heart with ice cooled normal saline (0.9% NaCl) to remove blood-born cholinesterase from the brain. After perfusion the whole brain was taken out. A 10% (w/v) homogenate of brain was prepared first by homogenizing in an Ultra-Turrax T25 homogenizer at a speed of 9500 rpm thrice giving intervals for few seconds in between the runs, with sodium phosphate buffer (0.03 M, pH-7)).
The brain homogenate in volume of 500 μl was mixed with 1% Triton X-100 (1% w/v in 0.03M sodium phosphate buffer, pH-7) and centrifuged at 100,000 g at 4° C. in a Beckman Ultracentrifuge (LE 80, USA), using a fixed angle rotor (80 ti) for 60 min. Supernatant was collected and stored at 4° C. for acetylcholinesterase estimation.
The assay for each sample was run in triplicate and each experiment was performed twice.
The specific activity of AChE is expressed in μM/min/mg of protein.
The test substance (dissolved in ethanol) was incubated with enzyme source in different concentrations ([…]) for 30 min at 37° C. prior to obtain kinetic profile of AChE activity. […] The AChE inhibitory activity was calculated on the basis of % decrease in AChE activity from control values i.e. AChE activity without incubation with any standard or test drug.
The results are expressed as mean±S.E.M. Statistical analysis of passive avoidance values were performed by t-test. The IC50 value was calculated by non linear regression method using GraphPad Prism software.

Swiss albino male mice = experiment: Gross behavioral study; details: for cholinergic symptoms / side effects: upto 24 hrs of drug administration; for cholinergic symptoms: 25 mg/kg; for side effects: 50 mg/kg

| Structure (SMILES) | IC50 [1] [µM] | inhibition at 10 µM [1] [%] | inhibition at 100 µM [1] [%] | also measured |
| --- | --- | --- | --- | --- |
| Cc1ccccc1NC(=O)Oc1ccc2c(c1)N(Cc1ccccc1)CCC2 [Compound 8a, 1-benzyl-1,2,3,4-tetrahydroquinolin-7-yl 2-methylphenylcarbamate] | 13 ± 0.66 | 44.1 | 90.4 | – |
| Cc1ccc(NC(=O)Oc2ccc3c(c2)N(Cc2ccccc2)CCC3)cc1 [Compound 8b, 1-benzyl-1,2,3,4-tetrahydroquinolin-7-yl 4-methylphenylcarbamate] | 354 ± 21.5 | 5.41 | 25.1 | – |
| O=C(Nc1ccccc1F)Oc1ccc2c(c1)N(Cc1ccccc1)CCC2 [Compound 8c, 1-benzyl-1,2,3,4-tetrahydroquinolin-7-yl 2-fluorophenylcarbamate] | > 100 | 9.87 | 19.5 | – |
| O=C(Nc1ccc(F)cc1)Oc1ccc2c(c1)N(Cc1ccccc1)CCC2 [Compound 8d, 1-benzyl-1,2,3,4-tetrahydroquinolin-7-yl 4-fluorophenylcarbamate] | > 100 | 5.23 | 15.5 | – |
| O=C(Nc1ccc(Cl)cc1)Oc1ccc2c(c1)N(Cc1ccccc1)CCC2 [Compound 8f, 1-benzyl-1,2,3,4-tetrahydroquinolin-7-yl 4-chlorophenylcarbamate] | > 100 | 2.1 | 12.5 | – |
| CCCCCCCNC(=O)Oc1ccc2c(c1)N(Cc1ccccc1)CCC2 [Compound 8h, 1-benzyl-1,2,3,4-tetrahydroquinolin-7-yl heptylcarbamate] | > 100 | 5.2 | 10.1 | – |
| COc1ccccc1NC(=O)Oc1ccc2c(c1)N(Cc1ccccc1)CCC2 [Compound 8i, 1-benzyl-1,2,3,4-tetrahydroquinolin-7-yl 2-methoxyphenylcarbamate] | 298 ± 12.7 | 2.5 | 24.1 | – |
| COc1ccc(NC(=O)Oc2ccc3c(c2)N(Cc2ccccc2)CCC3)cc1 [Compound 8j, 1-benzyl-1,2,3,4-tetrahydroquinolin-7-yl 4-methoxyphenylcarbamate] | > 100 | 1.41 | 3.59 | – |
| CN1CCCc2ccc(OC(=O)Nc3ccccc3F)cc21 [Compound 8l, 1-methyl-1,2,3,4-tetrahydroquinolin-7-yl 2-fluorophenylcarbamate] | 55.9 ± 2.97 | 32.8 | 58.8 | – |
| Cc1ccc(NC(=O)Oc2ccc3c(c2)NCCC3)cc1 [Compound 9a, 1,2,3,4-tetrahydroquinolin-7-yl 4-methylphenylcarbamate] | > 100 | 0.01 | 1.45 | – |
| O=C(Nc1ccccc1F)Oc1ccc2c(c1)NCCC2 [Compound 9b, 1,2,3,4-tetrahydroquinolin-7-yl 2-fluorophenylcarbamate] | 76.3 ± 0.9 | 10.5 | 55.7 | – |
| O=C(Nc1ccc(F)cc1)Oc1ccc2c(c1)NCCC2 [Compound 9c, 1,2,3,4-tetrahydroquinolin-7-yl 4-fluorophenylcarbamate] | 327 ± 15.9 | 1.15 | 21.6 | – |
| O=C(Nc1ccc(Cl)cc1)Oc1ccc2c(c1)NCCC2 [Compound 9d, 1,2,3,4-tetrahydroquinolin-7-yl 4-chlorophenylcarbamate] | 126 ± 4.17 | 1.86 | 38.9 | – |
| C#CCN1CCCc2ccc(OC(=O)Nc3ccccc3C)cc21 [Compound 10a, 1-(prop-2-ynyl)-1,2,3,4-tetrahydroquinolin-7-yl 2-methylphenylcarbamate] | 13.3 ± 3.33 | 52.5 | 60.8 | – |
| C#CCN1CCCc2ccc(OC(=O)NCCCCCCC)cc21 [Compound 10b, 1-(prop-2-ynyl)-1,2,3,4-tetrahydroquinolin-7-yl heptylcarbamate] | 7.59 ± 0.62 | 55.5 | 77.2 | tolerability (Swiss albino male mice; 125 mg/kg oral dose): Well tolerated; cholinergic symptoms / side effects (Swiss albino male mice; 125 mg/kg oral dose): No cholinergic symp-; AChE inhibitory activity, fold lower compared to the drug Rivastigmine ([1]; fold lower than Rivastigmine): 7 fold |
| C#CCN1CCCc2ccc(OC(=O)Nc3ccccc3Br)cc21 [Compound 10c, 1-(prop-2-ynyl)-1,2,3,4-tetrahydroquinolin-7-yl 2-bromophenylcarbamate] | 2.82 ± 0.04 | 71.7 | 87.3 | AChE inhibitory activity compared to rivastigmine [1]: almost equal |
| C#CCN1CCCc2ccc(OC(=O)Nc3c(C)cccc3C(C)C)cc21 [Compound 10d, 1-(prop-2-ynyl)-1,2,3,4-tetrahydroquinolin-7-yl 2-isopropyl-6-methylphenylcarbamate] | > 100 | 17.9 | 22.5 | – |
| C#CCN1CCCc2ccc(OC(=O)Nc3ccccc3OC)cc21 [Compound 10e, 1-(prop-2-ynyl)-1,2,3,4-tetrahydroquinolin-7-yl 2-methoxyphenylcarbamate] | 0.92 ± 0.12 | 95.4 | 96.3 | tolerability (Swiss albino male mice; 125 mg/kg oral dose): Well tolerated; cholinergic symptoms / side effects (Swiss albino male mice; 125 mg/kg oral dose): No cholinergic symp-; AChE inhibitory activity compared to rivastigmine [1]: slightly better |
| C#CCN1CCCc2ccc(OC(=O)Nc3ccc(Cl)cc3)cc21 [Compound 10f, 1-(prop-2-ynyl)-1,2,3,4-tetrahydroquinolin-7-yl 4-chlorophenylcarbamate] | 756 ± 208 | 25.4 | 30.9 | – |
| C#CCN1CCCc2ccc(OC(=O)N(C)C)cc21 [Compound 10g, 1-(prop-2-ynyl)-1,2,3,4-tetrahydroquinolin-7-yl dimethylcarbamate] | 0.68 ± 0.02 | 94.2 | 96.5 | AChE inhibitory activity compared to rivastigmine [1]: slightly better |
| COc1cc2c(cc1OC)C(=O)C(CC1CCN(Cc3ccccc3)CC1)C2 (centres unmarked) [Donepezil] | – | – | – | tolerability (Swiss albino male mice; 5 mg/kg dose): well tolerated; cholinergic symptoms (Swiss albino male mice): Moderate cholinergic; cholinergic symptoms (Swiss albino male mice; listed as donepezil): moderate cholinergic symptoms; side effects (Swiss albino male mice): severe side effects were found initially and all; side effects (Swiss albino male mice; listed as donepezil): severe side effects were found initially |
| CCN(C)C(=O)Oc1cccc([C@H](C)N(C)C)c1 [Rivastigmine] | – | – | – | overall locomotor activity (Swiss albino male mice; 1 mg/kg): locomotor activity was normal as control group.; peripheral cholinergic symptoms / tolerability (Swiss albino male mice; 1 mg/kg): 1 mg/kg: No peripheral cholinergic symptoms. Overall; duration of symptom phase (Swiss albino male mice; 2 mg/kg): 25 to 30 min; onset of symptoms after dosing (Swiss albino male mice; 2 mg/kg): 2 mg/kg: 5-10 min after dosing animals become; recovery to normal after dosing (Swiss albino male mice; 2 mg/kg): animals become normal one hr after; time gap between cholinergic side effect and death (Swiss albino male mice; 4 mg/kg): administration. There was no detectable time gap; mortality (Swiss albino male mice; 4 mg/kg oral): 100%; time to mortality after drug administration (Swiss albino male mice; 4 mg/kg oral): ≤ 15 min; peripheral side effects (Swiss albino male mice; oral dose of 3 mg/kg): some peripheral side effects |
| Nc1c2c(nc3ccccc13)CCCC2 [Tacrine] | – | – | – | tolerability (Swiss albino male mice; 5 mg/kg dose): well tolerated at 5 mg/kg dose |
